In patent US20120294837A1, “METHODS OF ISOLATING AND CULTURING MESENCHYMAL STEM CELLS” (UNIVERSITY OF ROCHESTER, priority 2010, published 2012):
Each block holds one compound with its values, some of them ahead of it.

Tests used:
[1] = tested on: hMSCs; assay: BrdU ELISA proliferation assay of hMSCs on Jag1 coated plates; type: cell-based, human; details: passage 3 hMSCs, 24 hours, vs IgG
Description: (§1) To determine if Notch signaling can induce important regulators of stem cell maintenance, passage 3 hMSCs were cultured on Jag1 and IgG coated plates for 24 hours and isolated RNA for real-time RT-PCR analyses (FIG. 11B). […] Therefore, Jag1/Notch signaling regulated hMSC maintenance and expansion via this network of stem cell factors. Finally, the same culture system and passage 3 hMSCs were used to determine if Jag1 regulated the proliferation of hMSCs over a relatively short time interval. BrdU ELISA assays were performed for hMSCs cultured on Jag1 and IgG coated plates for 24 hours.

[2] = tested on: Notch signaling in hMSCs; assay: RBPjP-dependent Notch luciferase reporter in hMSCs cultured on Jag1 coated plates; type: cell-based, human
Description: This lentivirus expresses GFP allowing determination of infection efficiency after 24 hours and during multiple passages of the cells. […] A protocol for coating culture dishes with the recombinant Jag1 protein using 5 μg/ml, 10 μg/ml, and 15 μg/ml concentrations of Jag1 and 10 μg/ml concentration of IgG as controls was established. […] Next, to confirm that this Jag1 coating technology induced Notch signaling in hMSCs, hMSCs transfected with the RBPjP-dependent Notch luciferase reporter were cultured on 5 μg/ml, 10 μg/ml, and 15 μg/ml Jag1 and IgG coated plates.

[3] = tested on: hMSCs; assay: Real-time RT-PCR of Notch target and stem cell regulator genes in hMSCs on Jag1 coated plates; type: cell-based, human; details: Jag1 coated plates 10 μg/ml, passage 3 hMSCs, 24 hours
Description: as §1

[4] = tested on: limb-bud derived MSCs; assay: Limb-bud MSC osteogenic monolayer differentiation (alkaline phosphatase staining, real-time RT-PCR); type: cell-based, mouse; details: DAPT 1 μM, 21 days
Description: (§2) Limb-bud derived MSCs were isolated from E11.5 CD1 mouse embryos as previously described (Zhang et al., Bone 34:809-17 (2004)). For chondrogenic differentiation, MSCs were seeded in micromass (1×10^5 cells in […]) in 12-well plates for 1.5 hours before adding standard media, media containing DAPT (1 μM), or media containing Hes1 shRNA lentivirus. Cells were cultured for a time-course of 6 hours, 3, 5, and 7 days prior to harvest for cartilage staining (1% Alcian blue/3% glacial acetic acid) or total RNA isolations. Limb-bud derived MSCs were also cultured in monolayer for 21 days and treated with either osteogenic (10 nM dexamethasone; 50 μM ascorbic acid; 10 mM β-glycerolphosphate) or adipogenic medium (Millipore; Billerica, Mass.) in the presence and absence of DAPT. Fixed MSCs were stained for osteoblastic differentiation using an alkaline phosphatase stain (nitro blue tetrazolium chloride/5-bromo-4-chloro-3-indolyhosphate P-toluidine salt) or adipogenic differentiation using an Oil Red-O staining solution (0.36%). Total RNA was isolated from monolayer cultures at day 21 for use in real-time RT-PCR analyses.
(§3) Embryonic limb-bud tissues or micromass cultures were frozen in liquid nitrogen and then homogenized in Trizol Reagent (Invitrogen; Carlsbad, Calif.) via rendering through a 25-gauge needle and syringe. Total cellular RNA was extracted following the manufacture's protocol. RNA was quantified using a NanoDrop spectrophotometer (NanoDrop; Wilmington, Del.) and equal concentrations of total RNA were pooled for synthesis of cDNA. Total RNA (1 μg) was reverse transcribed using the iScript™ cDNA synthesis kit (Bio-Rad; Hercules, Calif.) according to the manufacture's instructions. Reverse transcribed cDNA was analyzed by real-time RT-PCR with mouse-specific primers for: Sox9, Runx2, Col2a1, Agc1, Col1a1, Ap, Oc, Pparγ, Jagged1, Jagged2, Delta-like1, Delta-like3, Delta-like4, Notch1, Notch2, Notch3, Notch4, Hes1, Hes3, Hes5, Hes7, Hey1, Hey2, HeyL, and CyclinD1. Primers were designed using Applied Biosystems software (Applied Biosystems; Foster City, Calif.). […]

[5] = tested on: limb-bud derived MSCs; assay: Limb-bud MSC adipogenic monolayer differentiation (Oil Red-O staining, real-time RT-PCR); type: cell-based, mouse; details: DAPT 1 μM, 21 days
Description: as §2, §3

[6] = tested on: cleaved Notch2 (NICD2); assay: Western blot for cleaved, active Notch2 (NICD2) in cultured limb-bud derived MSCs; type: cell-based, mouse; details: DAPT 1 um, cultured overnight, vs absence of DAPT
Description: Total protein was isolated from either whole mouse limb-bud tissue or cultured limb-bud derived MSCs using Golden lysis buffer. The cultured limb-bud derived MSCs were plated at the density of 6×10^6 cells in 10 cm dishes and cultured overnight in 10% FBS DMEM media both in the presence and absence of DAPT (1 um). Protein samples (˜100 μg) from each isolation were subsequently separated on 10% SDS-polyacrylamide and transferred to a PVDF membrane. NICD1 and NICD2 cleaved proteins were detected using the bTAN 20 (Notch1) and C651.6DdHN (Notch2) primary antibodies (0.4 ug/ml) and then further probed with appropriate secondary antibody (1:3000). Anti-β-actin antibody (Sigma; St. Louis, Mo.) was used as a control for equal protein loading. Immunoblots were detected using Supersignal west femto maximum sensitivity substrate (Pierce; Rockford, Ill.).
To determine which Notch receptor is active in the limb-bud mesenchyme, total protein was isolated from cultured MSCs in the presence and absence of the Notch inhibitor, N-(3,5-difluorophenylacetyl-L-alanyl)]-S-phenylglycine t-ButylEster (DAPT, Calbiochem; San Diego, Calif.), or directly from wild-type E11.5 whole limb-bud tissue, and performed western blot analyses using Notch1 and Notch2 antibodies that can detect the cleaved or active (NICD) form of the receptor. […]

[7] = tested on: limb-bud derived MSCs; assay: Limb-bud MSC micromass chondrogenic differentiation (Alcian blue staining, real-time RT-PCR); type: cell-based, mouse
Description: as §2
Embryonic limb-bud tissues or micromass cultures were frozen in liquid nitrogen and then homogenized in Trizol Reagent (Invitrogen; Carlsbad, Calif.) via rendering through a 25-gauge needle and syringe. Total cellular RNA was extracted following the manufacture's protocol. RNA was quantified using a NanoDrop spectrophotometer (NanoDrop; Wilmington, Del.) and equal concentrations of total RNA were pooled for synthesis of cDNA. Total RNA (1 μg) was reverse transcribed using the iScript™ cDNA synthesis kit (Bio-Rad; Hercules, Calif.) according to the manufacture's instructions. Reverse transcribed cDNA was analyzed by real-time RT-PCR with mouse-specific primers for: Sox9, Runx2, Col2a1, Agc1, Col1a1, Ap, Oc, Pparγ, Jagged1, Jagged2, Delta-like1, Delta-like3, Delta-like4, Notch1, Notch2, Notch3, Notch4, Hes1, Hes3, Hes5, Hes7, Hey1, Hey2, HeyL, and CyclinD1. Primers were designed using Applied Biosystems software (Applied Biosystems; Foster City, Calif.). Sequences are available upon request. DNA amplification was achieved using the SYBR® Green PCR Master Mix (Applied Biosystems; Foster City, Calif.) and the RotorGene real-time DNA amplification system (Corbett Research; Sydney, Australia). Gene expression was normalized to β-actin expression levels and then normalized to control samples.
To determine the role of Notch signaling in MSCs, Notch loss-of-function assays were performed on E11.5 limb-bud derived MSC cultures using the Notch inhibitor, DAPT. […] The effect of DAPT was also assessed on the expression of the chondrogenic markers Sox9, Col2a1, and Agc1 via real-time RT-PCR.

luciferase activity of Notch reporter ([2]; plates coated with 10 μg/ml Jag1, 5, 10 and 15 μg/ml compared, IgG control): maximal luciferase activity
Compound: Jag1: recombinant Jag1 protein, Notch ligand, coated on culture dishes to activate Notch signaling
increase of BrdU incorporation as compared to controls [1]: more than 50%
hMSC growth, cell size, shape, cell survival on coated plates ([2]; Jag1 coated plates): no obvious changes in cell size, shape, or cell survival
Oct4 expression compared to Sox2 and Nanog [3]: only mildly enhanced
Hes1 expression over controls ([3]; vs IgG): approximately 7 fold
expression of Oct4, Sox2, and Nanog ([3]; vs IgG): induced the expression

alkaline phosphatase staining ([4]; osteogenic media): elevated alkaline phosphatase staining
expression of osteoblast marker genes Col1a1, AP, and Oc ([4]; real-time RT-PCR): significant increase
Compound: C[C@H](NC(=O)Cc1cc(F)cc(F)c1)C(=O)N[C@H](C(=O)OC(C)(C)C)c1ccccc1 [DAPT]
osteoblastic differentiation of MSCs ([4]; osteogenic media): enhanced normal osteoblastic differentiation
Oil Red-0 staining ([5]; adipogenic media): elevated Oil Red-0 staining
adipogenic differentiation of MSCs ([5]; adipogenic media): enhanced normal adipogenic differentiation
expression of the adipocyte marker gene Pparγ ([5]; real-time RT-PCR): increase
abundance of the cleaved Notch2 (NICD2) [6]: reduce the abundance of the cleaved Notch2 (NICD2)
cartilage nodule formation ([7]; 1 μM DAPT, micromass culture, Alcian blue): significantly enhanced cartilage nodule formation
Agc1 expression ([7]; DAPT 1 μM, day 7, real-time RT-PCR): significantly reduced
Sox9, Col2a1, and Agc1 expression ([7]; DAPT 1 μM, first 3-5 days of culture, vs untreated cultures, real-time RT-PCR): enhanced
limb-bud MSC differentiation ([7]; continuous DAPT 1 μM vs vehicle, chondrogenic, osteogenic and adipogenic cultures (FIG. 2A-2C)): enhances limb-bud MSC differentiation without biasing lineage determination
